Converted amounts (≈) assume the structure as drawn.
Columns and labels:
Trichoderma viride = assay: MIC in beerwort/peptone agar, Trichoderma viride; type: cell-based; settings: 28° C., 60 to 70% relative humidity, 2 weeks; for MIC: Trichoderma viride, 336 h
Method: (§1) Active compounds according to the invention are added in concentrations of 0.1 mg/1 to 5,000 mg/1 to an agar prepared from beerwort and peptone. After storage at 28° C. and 60 to 70% relative atmospheric humidity for 2 weeks, the MIC is determined. The MIC is the lowest concentration of active compound at which no growth at all by the species of microbes used takes place, and is given in Table 1.

Sclerophoma pityophila = assay: MIC in beerwort/peptone agar, Sclerophoma pityophila; type: cell-based; settings: 28° C., 60 to 70% relative humidity, 2 weeks; for MIC: Sydowia polyspora, 336 h
Method: as §1

Lentinus tigrinus = assay: MIC in beerwort/peptone agar, Lentinus tigrinus; type: cell-based; settings: 28° C., 60 to 70% relative humidity, 2 weeks; for MIC: Lentinus tigrinus, 336 h
Method: as §1

Polyporus versicolor = assay: MIC in beerwort/peptone agar, Polyporus versicolor; type: cell-based; settings: 28° C., 60 to 70% relative humidity, 2 weeks; for MIC: Trametes versicolor, 336 h
Method: as §1

Alternaria tenuis = assay: MIC in beerwort/peptone agar, Alternaria tenuis; type: cell-based; settings: 28° C., 60 to 70% relative humidity, 2 weeks; for MIC: Alternaria alternata, 336 h
Method: as §1

Aureobasidium pullulans = assay: MIC in beerwort/peptone agar, Aureobasidium pullulans; type: cell-based; settings: 28° C., 60 to 70% relative humidity, 2 weeks; for MIC: Aureobasidium pullulans, 336 h
Method: as §1

Penicillium glaucum = assay: MIC in beerwort/peptone agar, Penicillium glaucum; type: cell-based; settings: 28° C., 60 to 70% relative humidity, 2 weeks; for MIC: Penicillium, 336 h
Method: as §1

Chaetomium globosum = assay: MIC in beerwort/peptone agar, Chaetomium globosum; type: cell-based; settings: 28° C., 60 to 70% relative humidity, 2 weeks; for MIC: Chaetomium globosum, 336 h
Method: as §1

Aspergillus niger = assay: MIC in beerwort/peptone agar, Aspergillus niger; type: cell-based; settings: 28° C., 60 to 70% relative humidity, 2 weeks; for MIC: Aspergillus niger, 336 h
Method: as §1

slime organisms = assay: MIC against slime organisms in Allens nutrient solution; type: cell-based; settings: 504 h, about 10^6 germs/ml, 3 weeks at room temperature
Method: Compounds according to the invention are used in concentrations of in each case 0.1 to 100 mg/l in Allens nutrient solution (Arch. Mikrobiol. 17, 34 to 53 (1952)), which contains, in 4 l of sterile water, 0.2 g of ammonium chloride, 4.0 g of sodium nitrate, 1.0 g of dipotassium hydrogen phosphate, 0.2 g of calcium chloride, 2.05 g of magnesium sulphate, 0.02 g of iron chloride and 1% of caprolactam, dissolved in a little acetone. Shortly beforehand, the nutrient solutions are infected with slime organisms (about 10^6 germs/ml), which have been isolated from the spinning water circulations used in the production of polyamide. Nutrient solutions which contain the minimum inhibitory concentration (MIC) or higher concentrations of active compound are still completely clear after culture for 3 weeks at room temperature, that is to say the pronounced reproduction of the microbes and slime formation noticeable after 3 to 4 days in nutrient solutions containing no active compounds are absent.

Coniophora puteana = assay: MIC in beerwort/peptone agar, Coniophora puteana; type: cell-based; settings: 28° C., 60 to 70% relative humidity, 2 weeks; for MIC: Coniophora puteana, 336 h
Method: as §1

[1] = Water solubility of potassium salt; type: physicochemical
Method: 12.3 g (0.05 mole) of 2-(1H-pyrazol-1-yl)-6-chloro-4(3H)-quinazolinone (=compound from Example 4) are stirred in 1 liter of water with 45 ml of 1 N KOH for 1 hour. Residues of the starting material which have remained undissolved are removed, the clear solution is evaporated in vacuo and the solid residue is dried at 110° C. to give 12.2 g of water-soluble potassium salt of the quinazolinone employed.

fungi = assay: Mould resistance of PVA emulsion paint films (paint fungicide test, Report 219 Defense Standards Laboratories); settings: 28° to 30° C., 90 to 95% relative humidity, evaluated after 3 weeks; active compound E: even after ageing
Method: Testing is carried out in accordance with the method in Report 219 of the Defense Standards Laboratories Maribyrnong/Australia as follows: a smooth card is coated on both sides with the paint to be tested and is dried at room temperature for 8 days. For ageing, part of the paint film is kept in running water of 24° for 24 hours, or aerated with fresh air of 40° to 60° C. for 8 days, or subjected to a dry Xenon test for 110 hours. Pieces of 5×5 cm cut out from the samples thus prepared are placed individually on a glucose nutrient medium in Petri dishes and contaminated with a spore suspension of the following fungi: Aspergillus niger, Aureobasidium pullulans, Alternaria tenuis, Penicillium citrinum, Stachybotrys atra, Paecilomyces varioti, Cladosporium herbarum, Aspergillus ustus and Aspergillus flavus.
The contaminated dishes are stored at 28° to 30° C. and 90 to 95% relative atmospheric humidity, and are evaluated after 3 weeks. Paint films are regarded as mould-resistant if the samples remain free from fungi after these tests.
A commercially available emulsion paint based on PVA is tested for mould resistance by the test method described above.

[2] = tested on: microbes (bacteria, yeasts and moulds); assay: Preservation of cooling lubricant use dilutions; settings: 3-5% strength use dilutions, contaminated each day for 3 months; 3% preservative in cooling lubricant
Method: 3% of a preservative composed of 90% of benzyl alcohol mono(poly)hemiformaland 10% of active compound E is added to a cooling lubricant based on mineral oil.
3-5% strength use dilutions of the cooling lubricant are contaminated massively each day for 3 months with microbes (bacteria, yeasts and moulds) isolated from microbially decayed cooling lubricant use dilutions.

Work on `O=c1[nH]c(-n2cccn2)nc2ccccc12` [Active compound A, 2-(1H-Pyrazol-1-yl)-4-(3H)-quinazolinone] yielded an MIC (Trichoderma viride) of 100 µg/mL (≈ 471 µM), an MIC (Sclerophoma pityophila) of 20 µg/mL (≈ 94.2 µM) and an MIC (Lentinus tigrinus) of 20 µg/mL (≈ 94.2 µM). The MIC (Polyporus versicolor) was 20 µg/mL (≈ 94.2 µM), the MIC (Alternaria tenuis) was 20 µg/mL (≈ 94.2 µM) and the MIC (Aureobasidium pullulans) was 5 µg/mL (≈ 23.6 µM). For the same molecule, the MIC (Penicillium glaucum) was 100 µg/mL (≈ 471 µM), the MIC (Chaetomium globosum) was 100 µg/mL (≈ 471 µM) and the MIC (Aspergillus niger) was 100 µg/mL (≈ 471 µM). The MIC (slime organisms) was 30 µg/mL (≈ 141 µM) and the MIC (Coniophora puteana) was 1 µg/mL (≈ 4.71 µM).

For `Cc1cnn(-c2nc3ccccc3c(=O)[nH]2)c1` [Active compound B, 2-(4-Methyl-1H-pyrazol-1-yl)-4(3H)-quinazolinone], the MIC (Trichoderma viride) was 50 µg/mL (≈ 221 µM), the MIC (Sclerophoma pityophila) was 50 µg/mL (≈ 221 µM) and the MIC (Lentinus tigrinus) was under 10 µg/mL. For the same molecule, the MIC (Polyporus versicolor) was under 10 µg/mL, the MIC (Alternaria tenuis) was 75 µg/mL (≈ 332 µM) and the MIC (Aureobasidium pullulans) was 10 µg/mL (≈ 44.2 µM). The MIC (Penicillium glaucum) was 7 µg/mL (≈ 30.9 µM), the MIC (Chaetomium globosum) was under 20 µg/mL and the MIC (Aspergillus niger) was 50 µg/mL (≈ 221 µM).

For `Cc1ccn(-c2nc3ccccc3c(=O)[nH]2)n1` [Active compound C, 2-(3-Methyl-1H-pyrazol-1-yl)-4(3H)-quinazolinone], the MIC (Trichoderma viride) was 50 µg/mL (≈ 221 µM), the MIC (Sclerophoma pityophila) was 10 µg/mL (≈ 44.2 µM) and the MIC (Lentinus tigrinus) was 20 µg/mL (≈ 88.4 µM). It also gave an MIC (Polyporus versicolor) of 35 µg/mL (≈ 155 µM), an MIC (Alternaria tenuis) of 15 µg/mL (≈ 66.3 µM) and an MIC (Aureobasidium pullulans) of 50 µg/mL (≈ 221 µM). The MIC (Penicillium glaucum) was 75 µg/mL (≈ 332 µM), the MIC (Chaetomium globosum) was 5 µg/mL (≈ 22.1 µM) and the MIC (Aspergillus niger) was 35 µg/mL (≈ 155 µM). It also gave an MIC (slime organisms) of 100 µg/mL (≈ 442 µM) and an MIC (Coniophora puteana) of under 0.1 µg/mL.

In the case of `Cc1ccnn1-c1nc2ccccc2c(=O)[nH]1` [Active compound D, 2-(5-Methyl-1H-pyrazol-1-yl)-4(3H)-quinazolinone], the MIC (Trichoderma viride) is reported as 50 µg/mL (≈ 221 µM), the MIC (Sclerophoma pityophila) is reported as 50 µg/mL (≈ 221 µM) and the MIC (Lentinus tigrinus) is reported as 20 µg/mL (≈ 88.4 µM). It also gave an MIC (Polyporus versicolor) of 15 µg/mL (≈ 66.3 µM), an MIC (Alternaria tenuis) of 15 µg/mL (≈ 66.3 µM) and an MIC (Aureobasidium pullulans) of 35 µg/mL (≈ 155 µM). The MIC (Penicillium glaucum) was 35 µg/mL (≈ 155 µM), the MIC (Chaetomium globosum) was 5 µg/mL (≈ 22.1 µM) and the MIC (Aspergillus niger) was 35 µg/mL (≈ 155 µM). For the same molecule, the MIC (slime organisms) was 75 µg/mL (≈ 332 µM) and the MIC (Coniophora puteana) was under 0.1 µg/mL.

For `CCc1cnn(-c2nc3ccccc3c(=O)[nH]2)c1` [Active compound F, 2-(4-Ethyl-1H-pyrazol-1-yl)-4(3H)-quinazolinone], the MIC (Trichoderma viride) was 50 µg/mL (≈ 208 µM), the MIC (Sclerophoma pityophila) was 50 µg/mL (≈ 208 µM) and the MIC (Lentinus tigrinus) was 20 µg/mL (≈ 83.2 µM). It also gave an MIC (Polyporus versicolor) of 30 µg/mL (≈ 125 µM), an MIC (Aureobasidium pullulans) of 50 µg/mL (≈ 208 µM) and an MIC (Penicillium glaucum) of 35 µg/mL (≈ 146 µM). For the same molecule, the MIC (Chaetomium globosum) was under 20 µg/mL, the MIC (Aspergillus niger) was 50 µg/mL (≈ 208 µM) and the MIC (slime organisms) was 30 µg/mL (≈ 125 µM).

Molecule `Cc1cnn(-c2nc3ccc(Cl)cc3c(=O)[nH]2)c1` [Active compound G, 2-(4-Methyl-1H-pyrazol-1-yl)-6-chloro-4-(3H)-quinazolinone] has an MIC (Sclerophoma pityophila) of 5 µg/mL (≈ 19.2 µM), an MIC (Penicillium glaucum) of 7 µg/mL (≈ 26.9 µM) and an MIC (Chaetomium globosum) of 1 µg/mL (≈ 3.84 µM). It also gave an MIC (Coniophora puteana) of 1 µg/mL (≈ 3.84 µM).

Molecule `O=c1[nH]c(-n2cccn2)nc2cc(Cl)ccc12` [Active compound H, 2-(1H-Pyrazol-1-yl)-7-chloro-4(3H)-quinazolinone] has an MIC (slime organisms) of 100 µg/mL (≈ 405 µM).

In the case of `O=c1[nH]c(-n2cccn2)nc2ccc(Cl)cc12` [Example 32, 2-(1H-pyrazol-1-yl)-6-chloro-4(3H)-quinazolinone], the “water solubility (in words)” value [1] is reported as “water-soluble”.

With `CN(C)C(=S)SSC(=S)N(C)C` [tetramethylthiuram disulphide, reference compound] the “content of fungicide at which PVA emulsion paint films are mould-resistant” value (fungi) was at least 4%.

In the case of “Isomer mixture of 2-(3- and 5-methyl-1H-pyrazol-1-yl)-4(3H)-quinazolinone [Active compound E]”, the “MIC value, Trichoderma viride” value (Trichoderma viride) is reported as 75 µg/mL, the “MIC value, Sclerophoma pityophila” value (Sclerophoma pityophila) is reported as 2 µg/mL and the “MIC value, Lentinus tigrinus” value (Lentinus tigrinus) is reported as 20 µg/mL. For the same molecule, the “MIC value, Polyporus versicolor” value (Polyporus versicolor) was 35 µg/mL, the “MIC value, Alternaria tenuis” value (Alternaria tenuis) was 75 µg/mL and the “MIC value, Aureobasidium pullulans” value (Aureobasidium pullulans) was 15 µg/mL. For the same molecule, the “MIC value, Penicillium glaucum” value (Penicillium glaucum) was 35 µg/mL, the “MIC value, Chaetomium globosum” value (Chaetomium globosum) was 3 µg/mL and the “MIC value, Aspergillus niger” value (Aspergillus niger) was 50 µg/mL. For the same molecule, the “content of fungicide at which PVA emulsion paint films are mould-resistant” value (fungi) was 0.5% and the “MIC value, Coniophora puteana” value (Coniophora puteana) was 1 µg/mL.

For benzyl alcohol mono(poly)hemiformal, the “state of cooling lubricant use dilutions at the end of the testing period” value [2] was “show attack by mould at the end of the testing period”.
